Values quoted from earlier work, collected in patent US20200338016A1, “COMBINATION BROAD-SPECTRUM ANTIBIOTIC PREPARATIONS FOR DRUG-RESISTANT PATHOGENS” (priority 2019, published 2020).
Where two headings read alike, the source gives them in different places.

Key:
MRSA = settings: for MBEC: Minimal Biofilm Eradication Concentration, single agent; for MIC: Minimal Inhibitory Concentration
[1] = system: antibiotic-resistant streptococcus; settings: 32 strains of antibiotic-resistant streptococcus
[2] = system: multidrug resistant Klebsiella pneumonia; settings: twenty strains of multidrug resistant Klebsiella pneumonia
[3] = system: antibiotic-resistant bacteria; settings: against antibiotic-resistant bacteria
[4] = system: antibiotic resistant bacteria; settings: four antibiotic resistant bacteria
[5] = system: methicillin-resistant Staphylococus aureus
[6] = system: extensively multidrug resistant Acinetobacter baumannii
[7] = system: multidrug-resistant Acinetobacter baumannii
[8] = system: antibiotic resistant C. albicans
[9] = system: methicillin-resistant Staphylococcus aureus; settings: MRSA
[10] = system: antibiotic resistant bacteria; settings: four strains of antibiotic resistant bacteria; extracted from horseradish
[11] = system: multidrug resistant Acinetobacter baumannii; settings: six strains of multidrug resistant Acinetobacter baumannii
[12] = system: Candida albicans (ATCC 10231)
[13] = system: Bacillus subtilis (NCTC 8236)
[14] = system: Staphylococcus aureus (NCTC 6571)
[15] = system: Escherichia coli (NCTC 10418)
[16] = system: Proteus vulgaris (NCTC 4175)
[17] = system: Aspergillus niger (ATCC 10578)
[18] = system: antibiotic resistant Staphylococcus aureus

For `Cc1ccc(C(C)C)cc1O` [Carvacrol], the MBEC (MRSA) is given as 0.04 percentage of volume, the MIC (MRSA) is given as 0.02 percentage of volume and the concentration that inhibits [1] is given as 256 micrograms per milliliter.
For `O=C(O[C@@H]1Cc2c(O)cc(O)cc2O[C@@H]1c1cc(O)c(O)c(O)c1)c1cc(O)c(O)c(O)c1` [EGCG, epigallocatechin gallate], the concentration that kills [2] is listed as 1024 microgram per milliliter and the “antibiotic properties (in words)” value [3] is listed as “antibiotic properties”.
In the case of `C=CCc1ccc(O)c(OC)c1` [Eugenol], the MBC (MRSA; Minimal Bactericidal Concentration) is given as 0.08 percentage of volume, the MBEC (MRSA) is given as 0.08 percentage of volume and the MIC (MRSA) is given as 0.04 percentage of volume.
In the case of `O=C(O)/C=C/c1ccc(O)c(O)c1` [caffeic acid], the concentration that kills [2] is listed as 1024 microgram per milliliter.
In the case of `Cn1c(=O)c2c(ncn2C)n(C)c1=O` [caffeine], the “antibiotic properties (in words)” value [3] is given as “antibiotic properties”.
For `O=C(/C=C/c1ccc(O)c(O)c1)O[C@@H]1C[C@](O)(C(=O)O)C[C@@H](O)[C@H]1O` [chlorogenic acid], the concentration that kills [4] is given as 5 milligrams per milliliter and the “antibiotic properties (in words)” value [3] is given as “antibiotic properties”.
For `CC(C)=CCCC(C)=CC=O` [citral], the concentration that kills [5] is listed as 0.06%.
For `C[C@H]1[C@H]2CC[C@H]3[C@@H]4CC=C5C[C@@H](N(C)C)CC[C@]5(C)[C@H]4CC[C@]23CN1C` [conessine], the concentration that inhibits [6] is given as 10 milligrams per liter.
In the case of `O=C(O[C@@H]1O[C@@H]2COC(=O)c3cc(O)c(O)c(O)c3-c3c(cc(O)c(O)c3O)C(=O)O[C@H]([C@H]1O)[C@@H]2O)c1cc(O)c(O)c(O)c1` [corilagin], the concentration that inhibits [7] is listed as 1,000 micrograms per milliliter.
For `O=C(O[C@@H]1Cc2c(O)cc(O)cc2O[C@@H]1c1ccc(O)cc1)c1cc(O)c(O)c(O)c1` [epiafzelechin gallate], the “antibiotic properties (in words)” value [3] is given as “antibiotic properties”.
In the case of `Oc1ccc([C@H]2Oc3cc(O)cc(O)c3C[C@H]2O)cc1` [epiafzelechin], the “antibiotic properties (in words)” value [3] is listed as “antibiotic properties”.
For `O=C(O[C@@H]1Cc2c(O)cc(O)cc2O[C@@H]1c1ccc(O)c(O)c1)c1cc(O)c(O)c(O)c1` [epicatechin gallate], the “antibiotic properties (in words)” value [3] is listed as “antibiotic properties”.
For `Oc1cc(O)c2c(c1)O[C@H](c1cc(O)c(O)c(O)c1)[C@H](O)C2` [epigallocatechin], the “antibiotic properties (in words)” value [3] is given as “antibiotic properties”.
For `COc1cc(/C=C/C(=O)O)ccc1O` [ferulic acid], the concentration that kills [4] is listed as 5 milligrams per milliliter.
In the case of `Oc1cc(O)c2c(c1)O[C@H](c1cc(O)c(O)c(O)c1)[C@@H](O)C2` [gallocatechin], the “antibiotic properties (in words)” value [3] is given as “antibiotic properties”.
For `CC(C)=CCC/C(C)=C/CO` [geraniol], the concentration that inhibits [8] is listed as 1580 micrograms per milliliter.
For `CC1(C)[C@@H](O)CC[C@]2(C)[C@H]3C(=O)C=C4[C@@H]5C[C@@](C)(C(=O)O)CC[C@]5(C)CC[C@@]4(C)[C@]3(C)CC[C@@H]12` [glycerrhetinic acid], the concentration that kills [9] is listed as 0.223 µM.
For `O=c1c(O)c(-c2ccc(O)cc2)oc2cc(O)cc(O)c12` [kaempferol], the concentration that kills [4] is given as 5 milligrams per milliliter and the “antibiotic properties (in words)” value [3] is given as “antibiotic properties”.
For `C=CC(C)(O)CCC=C(C)C` (centres unmarked) [linalool], the concentration that inhibits [8] is listed as 1580 micrograms per milliliter.
In the case of `O=c1cc(-c2ccc(O)c(O)c2)oc2cc(O)cc(O)c12` [luteolin], the concentration that kills [4] is listed as 5 milligrams per milliliter.
For `O=c1cc(-c2ccccc2)oc2c(O)c(O)cc(O)c12` [norwogonin], the concentration that inhibits [7] is given as 1,000 micrograms per milliliter.
For `S=C=NCCc1ccccc1` [phenylethyl isothiocyanate], the concentration that kills [10] is listed as 2000 microgram per milliliter.
In the case of `O=c1c(O)c(-c2ccc(O)c(O)c2)oc2cc(O)cc(O)c12` [quercetin], the concentration that kills [4] is listed as 5 milligrams per milliliter, the concentration that kills [2] is listed as 1024 microgram per milliliter and the “antibiotic properties (in words)” value [3] is listed as “antibiotic properties”.
For `O=C(O[C@@H]1Cc2c(O)cc(O)cc2O[C@@H]1c1cc(O)c(=O)c2c(O)c(O)cc([C@H]3Oc4cc(O)cc(O)c4C[C@H]3OC(=O)c3cc(O)c(O)c(O)c3)c2c1)c1cc(O)c(O)c(O)c1` [theaflavin digallate], the “antibiotic properties (in words)” value [3] is given as “antibiotic properties”.
In the case of `O=c1c(O)cc([C@H]2Oc3cc(O)cc(O)c3C[C@H]2O)cc2c([C@H]3Oc4cc(O)cc(O)c4C[C@H]3O)cc(O)c(O)c12` [theaflavin], the concentration that inhibits [11] is given as 512 milligrams per liter and the “antibiotic properties (in words)” value [3] is given as “antibiotic properties”.
For `Cn1cnc2c1c(=O)[nH]c(=O)n2C` [theobromine], the “antibiotic properties (in words)” value [3] is listed as “antibiotic properties”.
For `Cn1c(=O)c2[nH]cnc2n(C)c1=O` [theophylline], the “antibiotic properties (in words)” value [3] is given as “antibiotic properties”.
In the case of catechin, the concentration that kills [4] is listed as 5 milligrams per milliliter and the “antibiotic properties (in words)” value [3] is listed as “antibiotic properties”.
For catechin gallate, the “antibiotic properties (in words)” value [3] is listed as “antibiotic properties”.
For piliostigmol, the “inhibition (in words)” value [12] is given as “inhibits”, the “inhibition (in words)” value [13] is given as “inhibits” and the “inhibition (in words)” value [14] is given as “inhibits”. The “inhibition (in words)” value [15] was “inhibits”, the “inhibition (in words)” value [16] was “inhibits” and the “inhibition (in words)” value [17] was “inhibits”.
In the case of pinene, the concentration that inhibits [18] is given as 20 microliters per milliliter.
In the case of theaflavin gallate, the “antibiotic properties (in words)” value [3] is listed as “antibiotic properties”.
For theasinesin A, the “antibiotic properties (in words)” value [3] is given as “antibiotic properties”.
In the case of trechebulin, the concentration that inhibits [7] is listed as 1,000 micrograms per milliliter.
